Reference: US20020137929A1, “1 - (3-heterocyclylphenyl) isothiourea, -isourea, -guanidine and -amidine herbicidal agents” (Intellectual Property Department, BASF Aktiengesellschaft, priority 1998, published 2002)

What was measured:
[1] = test system: SETVI (Foxtail, Green); test: Preemergence herbicidal evaluation; type: in vivo, Setaria viridis; settings: rated 4-5 weeks after treatment
How it was run: (§1)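 Each species is sown separately in potting soil over roughly an inch of soil before any emergence. The soil surface then receives an aqueous acetone spray delivering about 0.0156 to 0.500 kg/ha of compound. After four to five weeks, injury is scored from 0 to 9 relative to a control.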

[2] = test system: SAGPY (Arrowhead (Pygmaea)); test: Postemergence weed control under flooded paddy conditions; type: in vivo, Sagittaria pygmaea; settings: postemergence weeds, 3-4 weeks after treatment
How it was run: (§2)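 Herbicidal effect is judged by eye on a 0–9 scale versus control, 3–4 weeks after dosing. Dosing is into flood water kept 1.5–3 cm over the soil, at about 0.0313–0.500 kg/ha in aqueous/acetone 50/50 v/v, on 3–5 cm weeds and 1.5–2.5-leaf rice seedlings.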

[3] = test system: ECHORC (Watergrass (Calif.)); test: Preemergence weed control under flooded paddy conditions; type: in vivo, Echinochloa oryzoides; settings: rated 3-4 weeks after treatment
How it was run: (§3)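 Ratings on a 0-9 visual scale cover stand, vigor, malformation, size, chlorosis and overall appearance relative to a control, taken three to four weeks post-treatment. Application was into flood water over freshly sown silt loam at roughly 0.0313 to 0.500 kg/ha.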

[4] = test system: ZEAMX (Corn, Field); test: Postemergence herbicidal evaluation; type: in vivo, Zea mays; settings: postemergence
How it was run: (§4)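 Scores (0–9) reflect plant stand, vigor, malformation, size, chlorosis and general appearance relative to control, read 4 to 5 weeks after treatment and averaged where tests were repeated. Application: about 0.0156–0.500 kg/ha sprayed at 40 psi onto two-week seedlings.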

[5] = test system: ZEAMX (Corn, Field); test: Preemergence herbicidal evaluation; type: in vivo, Zea mays; settings: rated 4-5 weeks after treatment
How it was run: as §1

[6] = test system: TRZAWR (Wheat, Winter, cv Riband); test: Preemergence herbicidal evaluation; type: in vivo, Triticum aestivum; settings: rated 4-5 weeks after treatment
How it was run: as §1

[7] = test system: ECHORC (Watergrass (Calif.)); test: Postemergence weed control under flooded paddy conditions; type: in vivo, Echinochloa oryzoides; settings: postemergence weeds, 3-4 weeks after treatment
How it was run: as §2

[8] = test system: SETVI (Foxtail, Green); test: Postemergence herbicidal evaluation; type: in vivo, Setaria viridis; settings: postemergence
How it was run: as §4

[9] = test system: ECHCG (Barnyardgrass); test: Preemergence herbicidal evaluation; type: in vivo, Echinochloa crus-galli; settings: rated 4-5 weeks after treatment
How it was run: as §1

[10] = test system: CYPIR (Rice Flatsedge); test: Preemergence weed control under flooded paddy conditions; type: in vivo, Cyperus iria; settings: rated 3-4 weeks after treatment
How it was run: as §3

[11] = test system: ORYSAT (Rice, Tebonnet); test: Postemergence herbicidal evaluation; type: in vivo, Oryza sativa, (L.) Tebonnet; settings: postemergence
How it was run: as §4

[12] = test system: CYPIR (Rice Flatsedge); test: Postemergence weed control under flooded paddy conditions; type: in vivo, Cyperus iria; settings: postemergence weeds, 3-4 weeks after treatment
How it was run: as §2

[13] = test system: CYPSE (Flatsedge); test: Preemergence weed control under flooded paddy conditions; type: in vivo, Cyperus serotinus; settings: rated 3-4 weeks after treatment
How it was run: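 Values are visual 0-9 scores against a control for a preemergence application into paddy flood water at about 0.0313 to 0.500 kg/ha. Greenhouse duration was three to four weeks.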

[14] = test system: CYPSE (Flatsedge); test: Postemergence weed control under flooded paddy conditions; type: in vivo, Cyperus serotinus; settings: postemergence weeds, 3-4 weeks after treatment
How it was run: as §2

CCC1SC(=Nc2cc(-n3c(=O)cc(C(F)(F)F)n(C)c3=O)c(F)cc2Cl)N(C)C1=O (stereo not drawn) [Compound 10]
SETVI preemergence herbicidal rating ([1]; rate 0.0156 kg/ha): 2.3 | SETVI preemergence herbicidal rating ([1]; rate 0.0313 kg/ha): 5.7 | SETVI preemergence herbicidal rating ([1]; rate 0.0625 kg/ha): 9.0 | SETVI preemergence herbicidal rating ([1]; rate 0.1250 kg/ha): 9.0 | SETVI preemergence herbicidal rating ([1]; rate 0.2500 kg/ha): 9.0 | Herbicidal rating SAGPY ([2]; rate 0.0313 kg/ha): 0.0 | Herbicidal rating SAGPY ([2]; rate 0.0625 kg/ha): 0.0 | Herbicidal rating SAGPY ([2]; rate 0.1250 kg/ha): 0.0 | Herbicidal rating SAGPY ([2]; rate 0.2500 kg/ha): 0.0 | Herbicidal rating ECHORC ([3]; 0.0313 kg/ha): 0.0 | Herbicidal rating ECHORC ([3]; 0.0625 kg/ha): 1.0 | Herbicidal rating ECHORC ([3]; 0.1250 kg/ha): 2.0 | Herbicidal rating ECHORC ([3]; 0.2500 kg/ha): 2.0 | ZEAMX herbicidal rating ([4]; rate 0.0156 kg/ha): 4.3 | ZEAMX herbicidal rating ([4]; rate 0.0313 kg/ha): 5.3 | ZEAMX herbicidal rating ([4]; rate 0.0625 kg/ha): 5.3 | ZEAMX herbicidal rating ([4]; rate 0.1250 kg/ha): 5.3 | ZEAMX preemergence herbicidal rating ([5]; rate 0.0156 kg/ha): 4.7 | ZEAMX preemergence herbicidal rating ([5]; rate 0.0313 kg/ha): 6.7 | ZEAMX preemergence herbicidal rating ([5]; rate 0.0625 kg/ha): 7.0 | ZEAMX preemergence herbicidal rating ([5]; rate 0.1250 kg/ha): 7.3 | ZEAMX preemergence herbicidal rating ([5]; rate 0.2500 kg/ha): 8.0 | TRZAWR preemergence herbicidal rating ([6]; rate 0.0156 kg/ha): 1.0 | TRZAWR preemergence herbicidal rating ([6]; rate 0.0313 kg/ha): 3.5 | TRZAWR preemergence herbicidal rating ([6]; rate 0.0625 kg/ha): 5.5 | TRZAWR preemergence herbicidal rating ([6]; rate 0.1250 kg/ha): 6.5 | TRZAWR preemergence herbicidal rating ([6]; rate 0.2500 kg/ha): 7.5 | Herbicidal rating ECHORC ([7]; rate 0.0313 kg/ha): 0.0 | Herbicidal rating ECHORC ([7]; rate 0.0625 kg/ha): 1.0 | Herbicidal rating ECHORC ([7]; rate 0.1250 kg/ha): 2.0 | Herbicidal rating ECHORC ([7]; rate 0.2500 kg/ha): 2.0 | SETVI herbicidal rating ([8]; rate 0.0156 kg/ha): 0.0 | SETVI herbicidal rating ([8]; rate 0.0313 kg/ha): 0.0 | SETVI herbicidal rating ([8]; rate 0.0625 kg/ha): 1.0 | SETVI herbicidal rating ([8]; rate 0.1250 kg/ha): 3.0 | ECHCG preemergence herbicidal rating ([9]; rate 0.0156 kg/ha): 2.0 | ECHCG preemergence herbicidal rating ([9]; rate 0.0313 kg/ha): 4.0 | ECHCG preemergence herbicidal rating ([9]; rate 0.0625 kg/ha): 7.0 | ECHCG preemergence herbicidal rating ([9]; rate 0.1250 kg/ha): 9.0 | ECHCG preemergence herbicidal rating ([9]; rate 0.2500 kg/ha): 9.0 | Herbicidal rating CYPIR ([10]; 0.0313 kg/ha): 0.0 | Herbicidal rating CYPIR ([10]; 0.0625 kg/ha): 0.0 | Herbicidal rating CYPIR ([10]; 0.1250 kg/ha): 2.0 | Herbicidal rating CYPIR ([10]; 0.2500 kg/ha): 4.0 | ORYSAT herbicidal rating ([11]; rate 0.0156 kg/ha): 1.8 | ORYSAT herbicidal rating ([11]; rate 0.0313 kg/ha): 2.5 | ORYSAT herbicidal rating ([11]; rate 0.0625 kg/ha): 2.5 | ORYSAT herbicidal rating ([11]; rate 0.1250 kg/ha): 3.0 | Herbicidal rating CYPIR ([12]; rate 0.0313 kg/ha): 0.0 | Herbicidal rating CYPIR ([12]; rate 0.0625 kg/ha): 0.0 | Herbicidal rating CYPIR ([12]; rate 0.1250 kg/ha): 2.0 | Herbicidal rating CYPIR ([12]; rate 0.2500 kg/ha): 4.0 | Herbicidal rating CYPSE ([13]; 0.0313 kg/ha): 0.0 | Herbicidal rating CYPSE ([13]; 0.0625 kg/ha): 0.0 | Herbicidal rating CYPSE ([13]; 0.1250 kg/ha): 0.0 | Herbicidal rating CYPSE ([13]; 0.2500 kg/ha): 0.0 | Herbicidal rating CYPSE ([14]; rate 0.0313 kg/ha): 0.0 | Herbicidal rating CYPSE ([14]; rate 0.0625 kg/ha): 0.0 | Herbicidal rating CYPSE ([14]; rate 0.1250 kg/ha): 0.0 | Herbicidal rating CYPSE ([14]; rate 0.2500 kg/ha): 0.0
